# According to US20220017778A1, “Methods of Treating Inorganic Surfaces” (ZYDEX INC., priority 2018, published 2022):
# Experiment: Solubility / dispersibility of the product in water
# Format: physicochemical
# Conditions: general statement in the description
# Procedure: A two liter, three necked flask equipped with a condenser, stirrer, thermometer, and distillation head was charged with (i) 136 grams of methyltrimethoxysilane, (ii) 186 grams of monoehtylene glycol, and (iii) 0.6 grams of tetra isopropyltitanate was added into the mixture to facilitate a transesterification reaction to provide a non-ionic water soluble organosilane. This mixture was heated to 120° C. for two hours, during which 92 grams of methanol were recovered after which the reaction was deemed complete.
# A two liter, three necked flask equipped with a condenser, stirrer, thermometer, and distillation head was charged with (i) 164 grams of methyltrimethoxysilane, (ii) 186 grams of monoehtylene glycol, and (iii) 0.6 grams of tetra isopropyltitanate was added into the mixture to facilitate a transesterification reaction to provide a non-ionic water soluble organosilane. This mixture was heated to 120° C. for two hours, during which 95 grams of methanol were recovered after which the reaction was deemed complete.
structure (smiles),measurement,value
"CO[Si](C)(OC)OC [methyltrimethoxysilane (MTMS), methyltrimethoxysilane]","water solubility, in words (description)",insoluble in water
